Where two headings read alike, the source gives them in different places.
Experiments:
[1] = Healthy human volunteer plasma pharmacokinetics of PTH 1-34 (open cross-over, ELISA); type: in vivo
Procedure: An open cross-over clinical IMP (investigative medicinal product) study was conducted in seven healthy female subjects aged over 55 years (mean age 67.7, range 58 to 81 years). Each participant provided informed consent in accordance with ethical committee requirements and good clinical practice. Pre-study screening assessments were carried out within 21 days of the participants receiving their first dose (Supplementary Materials: Section S1). Inclusion and exclusion criteria were applied (Supplementary Materials: Section S2). Participants were admitted to the study centre on the morning of dosing, having abstained from alcohol and smoking for at least 24 h previously and fasted from midnight. Participants were given a light meal on arrival. A cannula was then positioned in the participant’s arm or hand to facilitate the collection of blood samples. The pre-dose sample was taken. Participants received a single subcutaneous injection of 20 μg teriparatide into the abdomen at their first trial visit. Following a seven day wash out period, each participant self-administered 90 μg PTH 1-34 from the nasal spray formulation using the Rexam SP270 nasal spray device; the patients had previously been trained in operation of the Rexam device. Any episodes of sneezing after administration of the nasal formulation were recorded. The nasal spray formulation contained Tc-99m-DTPA, 3–5 MBq per Rexam SP270 nasal spray dose, resulting in an effective radiation dose of less than 0.14 mSv to each participant.
Following either subcutaneous or intranasal dosing, 10 mL blood samples (Becton Dickinson sodium heparin) were taken at 5, 15, 30, 60 120, 180, 240, 300 and 360 min. After each sample was taken, the cannula was flushed with 10 mL 0.9% saline. Blood was stored on ice and centrifuged within 30 min to prepare plasma (4 °C, 1100–1300 g, 10 min). These samples were stored at −20 °C before dispatching to Simbec Research Ltd. (Merthyr Tydfil, UK) for quantification by validated ELISA, in compliance with The UK Good Laboratory Practice Regulations 1999 (Statutory Instrument No. 310 6) and subsequent amendment, OECD Principles of Good Laboratory Practice (Paris 1998) and EC Commission Directive 2004/10/EC of February 2004.
Pharmacokinetic data were analysed using Phoenix® WinNonlin® 5.1 (Certara USA, Inc., Princeton, NJ, USA) from quantified PTH 1-34 in the plasma, using recorded sampling times. Summary statistics (mean, median, SD, coefficient of variation [CV%], minimum, maximum, n) and the following plasma pharmacokinetic parameters were calculated: • Cmax • Tmax • Terminal half-life (t1/2) • AUC to 2 h (AUC0–2h) • AUC to last measured time point (AUClast) and corresponding Frel for nasal formulation

[2] = cited from earlier work
From the text: Nasal delivery of large peptides such as parathyroid 1-34 (PTH 1-34) can benefit from a permeation enhancer to promote absorption across the nasal mucosa into the bloodstream. […] We report here the plasma pharmacokinetics of PTH 1-34 in healthy human volunteers receiving the liquid nasal spray formulation containing Solutol® HS15 ... || Our previously published preclinical data in rats for a liquid nasal spray formation were encouraging, showing that the nasal systemic absorption of PTH 1-34 was increased considerably when administered in a formulation containing Solutol® HS15. […] This was not consistent with the previous data from our small animal preclinical studies. In the preceding preclinical conscious rat model, we reported the pharmacokinetic performance of an […] PTH 1-34 subcutaneous formulation, an intranasal liquid formulation with no enhancer and an intranasal solution containing Solutol® HS15. PTH 1-34 doses of 80 μg/kg by subcutaneous injection and 100 μg/kg intranasally were given to rats. T ...

[3] = post-menopausal women with osteoporosis, 20 μg PTH 1-34 subcutaneous dose, reported by the manufacturers of the commercial formulation; cited from earlier work
[4] = healthy female volunteers aged over 55 y, single 20 μg teriparatide subcutaneous injection into abdomen (Forsteo pen), plasma ELISA, mean of n = 7
[5] = conscious rat, intranasal liquid formulation without enhancer, 100 μg/kg

- F rel ([1]; female, plasma, inhaled or intranasal, 90 ug, human, 90 μg intranasal vs 20 μg subcutaneous, all seven subjects included in the calculation, read-out: bioavailability after intranasal dosing compared to subcutaneous injection of Forsteo): 0.26%
- Cmax [1, 4]: 0.253 ng/mL
- t½ [1, 4]: 65 min
- bioavailability after intranasal dosing compared to subcutaneous injection of Forsteo ([1]; human, 90 μg intranasal vs 20 μg subcutaneous, only the subjects with measurable plasma concentrations): approximately 1%
- Tmax ([1]; human, inhaled or intranasal, 90 ug, healthy female volunteers aged over 55 y, single 90 μg PTH 1-34 intranasal liquid spray with 7.5% w/v Solutol HS15 (Rexam SP270), plasma ELISA, mean of n = 7, not detectable in 5 of 7): 9 min
- Cmax ([1]; human, inhaled or intranasal, 90 ug, healthy female volunteers aged over 55 y, single 90 μg PTH 1-34 intranasal liquid spray with 7.5% w/v Solutol HS15 (Rexam SP270), plasma ELISA, mean of n = 7, not detectable in 5 of 7, read-out: Cmax): 0.005 ng/mL
SMILES: CC[C@H](C)[C@H](NC(=O)[C@H](CCC(=O)O)NC(=O)[C@H](CO)NC(=O)[C@@H](NC(=O)[C@@H](N)CO)C(C)C)C(=O)N[C@@H](CCC(N)=O)C(=O)N[C@@H](CC(C)C)C(=O)N[C@@H](CCSC)C(=O)N[C@@H](Cc1cnc[nH]1)C(=O)N[C@@H](CC(N)=O)C(=O)N[C@@H](CC(C)C)C(=O)NCC(=O)N[C@@H](CCCCN)C(=O)N[C@@H](Cc1cnc[nH]1)C(=O)N[C@@H](CC(C)C)C(=O)N[C@@H](CC(N)=O)C(=O)N[C@@H](CO)C(=O)N[C@@H](CCSC)C(=O)N[C@@H](CCC(=O)O)C(=O)N[C@@H](CCCN=C(N)N)C(=O)N[C@H](C(=O)N[C@@H](CCC(=O)O)C(=O)N[C@@H](Cc1c[nH]c2ccccc12)C(=O)N[C@@H](CC(C)C)C(=O)N[C@@H](CCCN=C(N)N)C(=O)N[C@@H](CCCCN)C(=O)N[C@@H](CCCCN)C(=O)N[C@@H](CC(C)C)C(=O)N[C@@H](CCC(N)=O)C(=O)N[C@@H](CC(=O)O)C(=O)N[C@H](C(=O)N[C@@H](Cc1cnc[nH]1)C(=O)N[C@@H](CC(N)=O)C(=O)N[C@@H](Cc1ccccc1)C(=O)O)C(C)C)C(C)C [PTH 1-34, PTH 1-34 acetate]
- relative bioavailability ([2]; conscious rat, intranasal liquid formulation without enhancer (100 μg/kg) relative to subcutaneous injection (80 μg/kg)): 8%
- Cmax [2, 5]: 2 ng/mL
- Tmax [2, 5]: 13 min
- Tmax ([2]; conscious rat, intranasal solution containing Solutol HS15, 100 μg/kg): ~10 min
- relative bioavailability ([2]; rat, intranasal liquid formulation containing Solutol HS15 (100 μg/kg) relative to subcutaneous injection (80 μg/kg)): 78%
- Cmax ([2]; rat, subcutaneous injection, 80 μg/kg PTH 1-34, mean): 14.8 ng/mL
- Cmax [3]: ~0.15 ng/mL
- elimination half-life [3]: approximately 1 h
